Key:
[1] = tested on: M. marinum in BV2 microglial cells; assay type: cell-based, Mycobacterium marinum
Mtb H37Rv in THP-1 = tested on: Mtb H37Rv in THP-1; design: method as in Sorrentino et al, 2015; settings: THP1 / Mtb H37Rv infection assay; ref Sorrentino et al, 2015; cited from earlier work
M. marinum luxCDABE = assay type: cell-based, Mycobacterium marinum
[2] = tested on: M. marinum in A. castellanii; assay type: cell-based, Mycobacterium marinum

In the case of `O=C(Nc1nnc(-c2ccc(Cl)s2)o1)c1ccc(Cl)s1` [GSK316438A], the “Intracellular infection assays: BV2 / M. marinum” value [1] is given as 1.30, the “Intracelullar MIC90 in THP-1” value (Mtb H37Rv in THP-1) is given as greater than 50 µM and the “Antibiotic assays: M. marinum luxCDABE” value (M. marinum luxCDABE) is given as 0.09. The “Intracellular infection assays: A. castellanii / M. marinum” value [2] was 1.32, the “Growth inhibition / Cytotoxicity assays: BV2 cells” value (BV2 cells) was “False” and the “Growth inhibition / Cytotoxicity assays: D. discoideum GFP-ABD” value (D. discoideum GFP-ABD) was 0.70.

In the case of `CCOc1ccc(OCc2ccc(C(=O)NNC(=O)c3ccc([N+](=O)[O-])o3)cc2)cc1` [GSK426032A], the “Intracellular infection assays: BV2 / M. marinum” value [1] is listed as 1.27, the “Intracelullar MIC90 in THP-1” value (Mtb H37Rv in THP-1) is listed as greater than 50 µM and the “Antibiotic assays: M. marinum luxCDABE” value (M. marinum luxCDABE) is listed as 0.00. The “Intracellular infection assays: A. castellanii / M. marinum” value [2] was 0.94, the “Growth inhibition / Cytotoxicity assays: BV2 cells” value (BV2 cells) was “False” and the “Growth inhibition / Cytotoxicity assays: D. discoideum GFP-ABD” value (D. discoideum GFP-ABD) was 1.02.

For `c1ccc(Cc2nnc(Sc3ccnc(N4CCN(c5ccncc5)CC4)n3)n2CCN2CCOCC2)cc1` [GSK547511A], the “Intracellular infection assays: BV2 / M. marinum” value [1] is given as 1.36, the “Intracelullar MIC90 in THP-1” value (Mtb H37Rv in THP-1) is given as greater than 50 µM and the “Antibiotic assays: M. marinum luxCDABE” value (M. marinum luxCDABE) is given as 0.13. For the same molecule, the “Intracellular infection assays: A. castellanii / M. marinum” value [2] was 0.94, the “Growth inhibition / Cytotoxicity assays: BV2 cells” value (BV2 cells) was “False” and the “Growth inhibition / Cytotoxicity assays: D. discoideum GFP-ABD” value (D. discoideum GFP-ABD) was 1.02.

For `CCC(Sc1nc2ccccc2o1)C(=O)Nc1nccs1` (stereo not shown) [GSK829969A], the “Intracellular infection assays: BV2 / M. marinum” value [1] was 1.56, the “Antibiotic assays: M. marinum luxCDABE” value (M. marinum luxCDABE) was 0.00 and the “Intracellular infection assays: A. castellanii / M. marinum” value [2] was 1.58. The “Growth inhibition / Cytotoxicity assays: BV2 cells” value (BV2 cells) was “True” and the “Growth inhibition / Cytotoxicity assays: D. discoideum GFP-ABD” value (D. discoideum GFP-ABD) was 0.94.

For `CN(C)S(=O)(=O)c1ccc(C(=O)Nc2nnc(-c3ccc(Cl)s3)o2)cc1` [GSK991960A], the “Intracellular infection assays: BV2 / M. marinum” value [1] was 1.20, the “Antibiotic assays: M. marinum luxCDABE” value (M. marinum luxCDABE) was 0.15 and the “Intracellular infection assays: A. castellanii / M. marinum” value [2] was 1.06. For the same molecule, the “Growth inhibition / Cytotoxicity assays: BV2 cells” value (BV2 cells) was “False” and the “Growth inhibition / Cytotoxicity assays: D. discoideum GFP-ABD” value (D. discoideum GFP-ABD) was 0.90.

For `O=C(NC1=NCCS1)c1sc2cc(F)ccc2c1Cl` [GSK1107112A], the “Intracellular infection assays: BV2 / M. marinum” value [1] was 1.29, the “Antibiotic assays: M. marinum luxCDABE” value (M. marinum luxCDABE) was 0.10 and the “Intracellular infection assays: A. castellanii / M. marinum” value [2] was 0.90. For the same molecule, the “Growth inhibition / Cytotoxicity assays: BV2 cells” value (BV2 cells) was “False” and the “Growth inhibition / Cytotoxicity assays: D. discoideum GFP-ABD” value (D. discoideum GFP-ABD) was 0.0367.

For `O=C(c1cnn(C(=O)c2ccco2)c1)c1cc(F)ccc1O` [GSK1310678A], the “Intracellular infection assays: BV2 / M. marinum” value [1] was 1.17, the “Antibiotic assays: M. marinum luxCDABE” value (M. marinum luxCDABE) was 0.00 and the “Intracellular infection assays: A. castellanii / M. marinum” value [2] was 0.98. The “Growth inhibition / Cytotoxicity assays: BV2 cells” value (BV2 cells) was “False” and the “Growth inhibition / Cytotoxicity assays: D. discoideum GFP-ABD” value (D. discoideum GFP-ABD) was 1.12.

For `NC(=O)c1cc(-c2ccsc2)ccc1OCCOc1ccccc1` [GSK1365028A], the “Intracellular infection assays: BV2 / M. marinum” value [1] is listed as 1.42, the “Intracelullar MIC90 in THP-1” value (Mtb H37Rv in THP-1) is listed as greater than 50 µM and the “Antibiotic assays: M. marinum luxCDABE” value (M. marinum luxCDABE) is listed as 0.00. For the same molecule, the “Intracellular infection assays: A. castellanii / M. marinum” value [2] was 1.14, the “Growth inhibition / Cytotoxicity assays: BV2 cells” value (BV2 cells) was “False” and the “Growth inhibition / Cytotoxicity assays: D. discoideum GFP-ABD” value (D. discoideum GFP-ABD) was 0.94.

In the case of `O=C(OCc1c(F)cccc1Cl)c1ccc(-n2ncc(Cl)c(Cl)c2=O)cc1` [GSK1826825A], the “Intracellular infection assays: BV2 / M. marinum” value [1] is reported as 1.71, the “Antibiotic assays: M. marinum luxCDABE” value (M. marinum luxCDABE) is reported as 0.13 and the “Intracellular infection assays: A. castellanii / M. marinum” value [2] is reported as 0.95. The “Growth inhibition / Cytotoxicity assays: BV2 cells” value (BV2 cells) was “False” and the “Growth inhibition / Cytotoxicity assays: D. discoideum GFP-ABD” value (D. discoideum GFP-ABD) was 1.04.

From PMC5834492, “Antimycobacterial drug discovery using Mycobacteria-infected amoebae identifies anti-infectives and new molecular targets” (Scientific Reports, 2018)
